{
  "source": "ChEMBL document CHEMBL3232977",
  "about": "“Medicinal chemistry optimization of antiplasmodial imidazopyridazine hits from high throughput screening of a SoftFocus kinase library: part 1” (J Med Chem, 2014)",
  "key": {"Plasmodium falciparum [1]": {"system": "Plasmodium falciparum", "description": "(§1) Antimalarial activity against drug-sensitive Plasmodium falciparum NF54"}, "physchem": {"test": "physchem", "details": "0.01 M HCl, pH 2"}, "Plasmodium berghei [2]": {"system": "Plasmodium berghei", "test": "Antimalarial activity against GFP-transfected Plasmodium berghei ANKA infected in mouse assessed as mean survival days at 40 mg/kg, po qd for 4 days", "assay_type": "functional"}, "Plasmodium berghei [3]": {"system": "Plasmodium berghei", "test": "Antimalarial activity against GFP-transfected Plasmodium berghei ANKA infected in po dosed mouse assessed as reduction of parasitemia administered qd for 4 days", "assay_type": "functional", "details": "96 h"}, "[4]": {"test": "Tmax in Sprague-Dawley rat at 3.6 mg/ml, po", "assay_type": "ADME, organism-based", "details": "in vivo"}, "Plasma": {"system": "Plasma", "test": "Average plasma concentration in GFP-transfected Plasmodium berghei ANKA infected mouse at 40 mg/kg, po qd for 4 days measured after 24 hrs", "assay_type": "ADME, organism-based", "parameters": "dose 40 mg/kg, route oral", "details": "in vivo"}, "[5]": {"test": "Apparent half life in Sprague-Dawley rat at 3.6 mg/ml, iv", "assay_type": "ADME, organism-based", "details": "in vivo, read-out: t1/2(app) (converted)"}, "[6]": {"test": "AUC (0 to infinity) in Sprague-Dawley rat at 3.6 mg/ml, iv", "assay_type": "ADME, organism-based", "parameters": "dose 3.6 mg/ml, route intravenous, time infinity", "details": "plasma"}, "[7]": {"test": "Apparent Cmax in GFP-transfected Plasmodium berghei ANKA infected mouse at 40 mg/kg, po qd for 4 days", "assay_type": "ADME, organism-based", "parameters": "dose 40 mg/kg, route oral", "details": "in vivo"}, "Plasmodium falciparum [8]": {"system": "Plasmodium falciparum", "test": "Antimalarial activity against Plasmodium falciparum infected in po dosed SCID mouse assessed as reduction of parasitemia administered qd for 4 days", "assay_type": "functional", "details": "96 h"}, "[9]": {"test": "Apparent AUC in GFP-transfected Plasmodium berghei ANKA infected mouse at 40 mg/kg, po qd for 4 days", "assay_type": "ADME, organism-based", "parameters": "dose 40 mg/kg, route oral", "details": "in vivo"}, "Plasmodium falciparum [10]": {"system": "Plasmodium falciparum", "test": "microbe, parasite or virus in culture", "details": "K1", "description": "Antimalarial activity against multidrug-resistant Plasmodium falciparum K1"}, "[11]": {"test": "Oral bioavailability in Sprague-Dawley rat at 3.6 mg/ml", "assay_type": "ADME, organism-based", "details": "in vivo"}, "Plasmodium falciparum [12]": {"system": "Plasmodium falciparum", "test": "microbe, parasite or virus in culture", "details": "NF54", "description": "as §1"}, "[13]": {"test": "Apparent half life in Sprague-Dawley rat at 3.6 mg/ml, po", "assay_type": "ADME, organism-based", "details": "in vivo, read-out: t1/2(app) (converted)"}, "Plasmodium berghei [14]": {"system": "Plasmodium berghei", "test": "Antimalarial activity against GFP-transfected Plasmodium berghei ANKA infected in mouse assessed as reduction of parasitemia at 40 mg/kg, po qd for 4 days", "assay_type": "functional"}, "[15]": {"test": "Plasma total clearance in Sprague-Dawley rat at 3.6 mg/ml, iv", "assay_type": "ADME, organism-based"}, "[16]": {"test": "AUC (0 to infinity) in Sprague-Dawley rat at 3.6 mg/ml, po", "assay_type": "ADME, organism-based", "parameters": "dose 3.6 mg/ml, time infinity, route oral", "details": "plasma"}, "[17]": {"test": "Volume of distribution at steady state in Sprague-Dawley rat at 3.6 mg/ml, iv", "assay_type": "ADME, organism-based", "details": "in vivo, read-out: Vdss"}, "[18]": {"test": "Cmax in Sprague-Dawley rat at 3.6 mg/ml, po", "assay_type": "ADME, organism-based", "parameters": "dose 3.6 mg/ml, route oral", "details": "in vivo"}, "[19]": {"test": "Solubility of the compound in 0.01M HCl at pH 2.5", "assay_type": "physicochemical"}},
  "data": [
    {"smiles": "CC(C)(C)c1cccc(-c2ccc3ncc(-c4ccc(S(C)(=O)=O)cc4)n3n2)c1", "values": [
      {"measurement": "IC50", "setting": "Plasmodium falciparum [1]", "result": "ND(Insoluble)"},
      {"measurement": "solubility", "setting": "physchem", "result": "> 100", "unit": "µg/mL"}
    ]},
    {"smiles": "CS(=O)(=O)c1ccc(-c2cnc3ccc(-c4cccc(S(C)(=O)=O)c4)nn23)cc1", "values": [
      {"measurement": "MSD", "setting": "Plasmodium berghei [2]", "result": 7, "unit": "days"},
      {"measurement": "ED50", "setting": "Plasmodium berghei [3]", "result": 1.4, "unit": "mg/kg"},
      {"measurement": "ED90", "setting": "Plasmodium berghei [3]", "result": 15, "unit": "mg/kg"},
      {"measurement": "Tmax", "setting": "[4]", "result": 3, "unit": "h"},
      {"measurement": "Cave", "setting": "Plasma", "result": 1.2, "unit": "µM"},
      {"measurement": "half-life", "setting": "[5]", "result": 429, "unit": "min"},
      {"measurement": "AUC(0-inf)", "setting": "[6]", "result": 24.3, "unit": "µM·h"},
      {"measurement": "Cmax", "setting": "[7]", "result": 2200, "unit": "nM"},
      {"measurement": "ED90", "setting": "Plasmodium falciparum [8]", "result": 1.5, "unit": "mg/kg"},
      {"measurement": "AUC at 96 h", "setting": "[9]", "result": 27.8, "unit": "µM·h"},
      {"measurement": "IC50", "setting": "Plasmodium falciparum [10]", "result": 6.3, "unit": "nM"},
      {"measurement": "bioavailability", "setting": "[11]", "result": 77.7, "unit": "%"},
      {"measurement": "IC50", "setting": "Plasmodium falciparum [12]", "result": 7.3, "unit": "nM"},
      {"measurement": "half-life", "setting": "[13]", "result": 425, "unit": "min"},
      {"measurement": "MSD", "setting": "Plasmodium berghei [14]", "result": 98, "unit": "days"},
      {"measurement": "clearance", "setting": "[15]", "result": 5.77, "unit": "mL/min/kg"},
      {"measurement": "AUC(0-inf)", "setting": "[16]", "result": 18.9, "unit": "µM·h"},
      {"measurement": "Vd", "setting": "[17]", "result": 3.01, "unit": "L/kg"},
      {"measurement": "Cmax", "setting": "[18]", "result": 1900, "unit": "nM"},
      {"measurement": "solubility", "setting": "physchem", "result": "> 100", "unit": "µg/mL"}
    ]},
    {"smiles": "CS(=O)(=O)c1ccc(-c2cnc3ccc(-c4cccc(C(=O)N5CCNCC5)c4)nn23)cc1", "values": [
      {"measurement": "solubility", "setting": "[19]", "result": "> 100", "unit": "µg/mL"},
      {"measurement": "MSD", "setting": "Plasmodium berghei [2]", "result": 4, "unit": "days"},
      {"measurement": "Cmax", "setting": "[7]", "result": 10, "unit": "nM"},
      {"measurement": "IC50", "setting": "Plasmodium falciparum [10]", "result": 11, "unit": "nM"},
      {"measurement": "IC50", "setting": "Plasmodium falciparum [12]", "result": 15, "unit": "nM"},
      {"measurement": "MSD", "setting": "Plasmodium berghei [14]", "result": "<40", "unit": "days"},
      {"measurement": "solubility", "setting": "physchem", "result": "> 100", "unit": "µg/mL"}
    ]}
  ]
}
